Experiments:
PfEGF1‐α = target: T1, PfEGF1‐α (Plasmodium falciparum, UniProt Q8I0P6); test: DARTS; competition with APP photolabelling; format: binding; conditions: DARTS: 5 μM protein, room temperature, 2 h, pronase; competition: 10 μM ATS
T1 construct: gene PF3D7_1357000; recombinant, pET-28a(+), E. coli BL21(DE3), Ni-NTA
T1 sequence (Q8I0P6 1-443): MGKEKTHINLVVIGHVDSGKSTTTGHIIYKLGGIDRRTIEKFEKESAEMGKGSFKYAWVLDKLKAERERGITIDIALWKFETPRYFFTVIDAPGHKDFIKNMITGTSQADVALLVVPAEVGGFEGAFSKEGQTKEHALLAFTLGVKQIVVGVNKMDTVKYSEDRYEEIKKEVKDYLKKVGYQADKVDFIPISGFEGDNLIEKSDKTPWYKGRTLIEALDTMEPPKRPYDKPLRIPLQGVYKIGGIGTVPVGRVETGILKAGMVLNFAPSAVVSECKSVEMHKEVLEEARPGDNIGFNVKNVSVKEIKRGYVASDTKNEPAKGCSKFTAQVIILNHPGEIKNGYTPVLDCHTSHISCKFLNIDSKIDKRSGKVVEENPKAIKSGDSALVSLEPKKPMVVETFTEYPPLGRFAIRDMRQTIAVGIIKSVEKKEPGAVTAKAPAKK

PfGAPDH = target: T2, PfGAPDH (Plasmodium falciparum, UniProt Q8IKK7); test: enzyme activity inhibition; format: biochemical; conditions: binding also shown by DARTS; activity assay conditions not stated in main text; covalent Glu59 adduct suggested by MS in a separate test with hemin and ascorbate
T2 construct: gene PF3D7_1462800; recombinant, pET-28a(+), E. coli BL21(DE3), Ni-NTA
T2 sequence (Q8IKK7 entry or part of it): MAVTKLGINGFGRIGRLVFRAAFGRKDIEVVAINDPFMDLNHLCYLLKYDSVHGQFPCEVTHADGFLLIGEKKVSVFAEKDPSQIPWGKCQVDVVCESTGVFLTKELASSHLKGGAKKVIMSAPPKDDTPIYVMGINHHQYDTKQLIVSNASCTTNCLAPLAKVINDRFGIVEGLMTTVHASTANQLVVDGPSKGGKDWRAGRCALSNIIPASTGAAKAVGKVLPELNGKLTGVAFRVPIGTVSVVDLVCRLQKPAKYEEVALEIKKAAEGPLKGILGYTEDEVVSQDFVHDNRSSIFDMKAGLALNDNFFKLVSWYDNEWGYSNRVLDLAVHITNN

PfLDH = target: T3, PfLDH (Plasmodium falciparum, UniProt Q76NM3); test: enzyme activity inhibition; format: biochemical; conditions: binding also shown by DARTS; activity assay conditions not stated in main text
T3 construct: gene PF3D7_1324900; recombinant, pET-28a(+), E. coli BL21(DE3), Ni-NTA
T3 sequence (Q76NM3 1-316): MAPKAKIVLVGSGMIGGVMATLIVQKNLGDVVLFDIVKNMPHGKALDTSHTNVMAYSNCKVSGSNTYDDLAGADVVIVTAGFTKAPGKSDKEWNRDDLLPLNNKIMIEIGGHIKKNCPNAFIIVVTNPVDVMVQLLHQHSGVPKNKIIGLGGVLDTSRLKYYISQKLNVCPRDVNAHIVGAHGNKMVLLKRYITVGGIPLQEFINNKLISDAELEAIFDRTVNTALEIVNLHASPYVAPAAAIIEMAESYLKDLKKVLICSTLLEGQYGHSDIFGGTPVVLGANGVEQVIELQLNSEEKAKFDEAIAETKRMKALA

PfTIM = target: T4, PfTIM (Plasmodium falciparum, UniProt Q7KQM0); test: enzyme activity inhibition; format: biochemical; conditions: binding also shown by DARTS; activity assay conditions not stated in main text
T4 construct: gene TPI; recombinant, pET-28a(+), E. coli BL21(DE3), Ni-NTA
T4 sequence (Q7KQM0 whole entry): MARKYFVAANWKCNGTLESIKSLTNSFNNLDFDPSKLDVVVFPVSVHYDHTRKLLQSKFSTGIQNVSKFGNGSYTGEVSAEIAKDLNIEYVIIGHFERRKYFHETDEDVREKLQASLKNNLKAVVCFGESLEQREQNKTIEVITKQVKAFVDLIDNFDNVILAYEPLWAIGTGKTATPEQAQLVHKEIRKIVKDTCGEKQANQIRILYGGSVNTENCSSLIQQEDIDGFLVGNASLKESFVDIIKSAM

PfOAT = target: T5, PfOAT (Plasmodium falciparum, UniProt Q6LFH8); test: OAT activity assay kit, absorbance at […] nm; format: biochemical; conditions: without heme activation (also tested with heme activation); 1 h preincubation; methods name the inhibitor ART, 0-80 μM
T5 construct: gene OAT; recombinant, pET-28a(+), E. coli BL21(DE3), Ni-NTA
T5 sequence (Q6LFH8 1-414): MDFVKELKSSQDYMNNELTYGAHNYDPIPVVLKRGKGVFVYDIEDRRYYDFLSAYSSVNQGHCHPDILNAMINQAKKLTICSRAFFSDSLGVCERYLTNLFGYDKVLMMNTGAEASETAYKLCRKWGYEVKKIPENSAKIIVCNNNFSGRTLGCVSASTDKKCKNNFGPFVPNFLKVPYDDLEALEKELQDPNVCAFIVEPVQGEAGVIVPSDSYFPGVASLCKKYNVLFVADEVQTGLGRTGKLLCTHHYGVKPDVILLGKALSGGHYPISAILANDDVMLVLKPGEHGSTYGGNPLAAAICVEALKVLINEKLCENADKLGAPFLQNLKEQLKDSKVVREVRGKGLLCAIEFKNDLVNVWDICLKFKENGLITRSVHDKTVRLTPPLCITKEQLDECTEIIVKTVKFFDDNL

C[C@H]1[C@H](OC(=O)CCC(=O)O)O[C@@H]2O[C@@]3(C)CC[C@H]4[C@H](C)CC[C@@H]1[C@@]24OO3 [ATS, artesunate]
DARTS; competition with APP photolabelling (PfEGF1‐α): the PfEGF1‐α proteins became more resistant to proteolysis after incubation with ATS
half-maximal inhibitory concentration (PfGAPDH): the half‐maximal inhibitory concentrations were at low micromolar concentrations
half-maximal inhibitory concentration (PfLDH): the half‐maximal inhibitory concentrations were at low micromolar concentrations
half-maximal inhibitory concentration (PfTIM): the half‐maximal inhibitory concentrations were at low micromolar concentrations
OAT activity assay kit, absorbance at 340 nm (PfOAT): ATS can significantly inhibit its enzyme activity in both heme‐activated and nonactivated states

— article PMC11170969, “Photoaffinity probe‐based antimalarial target identification of artemisinin in the intraerythrocytic developmental cycle of Plasmodium falciparum” (iMeta, 2024)
